According to PMC9516332 (Frontiers in Oncology, 2022):
Where two headings read alike, the source gives them in different places.

How the values were obtained:
Test in all cases: Kinase panel profiling at 1 µmol/L (MSA or IMAP), percentage inhibition
Assay type in all cases: biochemical
[1] = target: T1, panel of 255 wild-type kinases (Homo sapiens, UniProt Q8NE63); details: read-out: %-inhibition at 1 µmol/L, HIPK4
T1 sequence (Q8NE63 1-616): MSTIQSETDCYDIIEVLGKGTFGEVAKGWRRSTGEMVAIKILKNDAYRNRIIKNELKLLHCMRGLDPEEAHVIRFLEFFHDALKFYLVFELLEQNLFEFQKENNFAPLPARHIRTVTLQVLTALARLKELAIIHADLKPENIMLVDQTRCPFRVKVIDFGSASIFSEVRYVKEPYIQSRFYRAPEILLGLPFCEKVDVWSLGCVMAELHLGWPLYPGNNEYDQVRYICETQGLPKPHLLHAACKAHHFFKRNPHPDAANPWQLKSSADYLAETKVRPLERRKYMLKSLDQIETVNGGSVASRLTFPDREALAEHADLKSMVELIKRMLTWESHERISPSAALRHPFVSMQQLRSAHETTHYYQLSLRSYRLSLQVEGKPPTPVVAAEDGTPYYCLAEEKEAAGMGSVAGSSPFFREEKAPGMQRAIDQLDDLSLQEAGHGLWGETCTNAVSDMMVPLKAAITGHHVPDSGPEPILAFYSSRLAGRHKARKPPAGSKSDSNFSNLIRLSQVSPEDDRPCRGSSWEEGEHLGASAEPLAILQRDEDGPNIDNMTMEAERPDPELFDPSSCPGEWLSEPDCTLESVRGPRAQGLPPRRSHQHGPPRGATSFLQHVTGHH

[2] = target: panel of 255 wild-type kinases (Homo sapiens, UniProt Q9H4B4); details: read-out: %-inhibition at 1 µmol/L, PLK3
[3] = target: T2, panel of 255 wild-type kinases (Homo sapiens, UniProt Q9UQB9); details: read-out: %-inhibition AurC
T2 sequence (Q9UQB9 1-309): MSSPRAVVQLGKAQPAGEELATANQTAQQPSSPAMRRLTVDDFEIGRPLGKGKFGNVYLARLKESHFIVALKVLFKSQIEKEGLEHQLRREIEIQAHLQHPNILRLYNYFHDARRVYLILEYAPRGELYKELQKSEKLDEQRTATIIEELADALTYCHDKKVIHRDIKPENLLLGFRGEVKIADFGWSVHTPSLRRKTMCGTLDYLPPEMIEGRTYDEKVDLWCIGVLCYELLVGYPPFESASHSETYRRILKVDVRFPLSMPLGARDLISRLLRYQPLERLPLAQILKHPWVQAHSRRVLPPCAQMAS

[4] = target: T3, panel of 255 wild-type kinases (Homo sapiens, UniProt O00418); details: read-out: %-inhibition at 1 µmol/L, EEF2K
T3 sequence (O00418 1-725): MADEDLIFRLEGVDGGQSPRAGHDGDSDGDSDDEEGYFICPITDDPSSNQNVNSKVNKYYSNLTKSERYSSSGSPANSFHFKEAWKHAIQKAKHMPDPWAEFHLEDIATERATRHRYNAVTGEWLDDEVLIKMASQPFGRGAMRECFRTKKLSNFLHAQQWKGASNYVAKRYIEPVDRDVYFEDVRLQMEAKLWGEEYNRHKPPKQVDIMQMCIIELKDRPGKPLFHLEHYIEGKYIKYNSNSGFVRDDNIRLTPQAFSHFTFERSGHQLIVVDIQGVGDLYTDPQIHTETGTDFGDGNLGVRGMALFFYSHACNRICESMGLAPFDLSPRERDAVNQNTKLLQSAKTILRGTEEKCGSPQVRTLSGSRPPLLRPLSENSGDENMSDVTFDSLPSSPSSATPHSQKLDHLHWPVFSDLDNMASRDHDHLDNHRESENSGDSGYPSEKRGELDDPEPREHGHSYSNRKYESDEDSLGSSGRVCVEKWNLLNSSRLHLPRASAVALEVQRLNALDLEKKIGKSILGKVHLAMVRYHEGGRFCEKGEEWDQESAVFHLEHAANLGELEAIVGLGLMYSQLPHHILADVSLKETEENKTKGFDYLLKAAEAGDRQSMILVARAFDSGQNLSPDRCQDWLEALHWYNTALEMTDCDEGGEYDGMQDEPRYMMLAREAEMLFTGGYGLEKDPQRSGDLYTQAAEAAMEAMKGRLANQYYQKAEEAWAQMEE

[5] = target: panel of 255 wild-type kinases (Homo sapiens, UniProt P14616); details: read-out: %-inhibition at 1 µmol/L, IRR
[6] = target: panel of 255 wild-type kinases (Homo sapiens, UniProt P68400); details: read-out: %-inhibition at 1 µmol/L, CK2α1/β
[7] = target: panel of 255 wild-type kinases (Homo sapiens, UniProt Q9NYY3); details: read-out: %-inhibition at 1 µmol/L, PLK2
[8] = target: T4, panel of 255 wild-type kinases (Homo sapiens, UniProt Q92630); details: read-out: %-inhibition at 1 µmol/L, DYRK2
T4 sequence (Q92630 1-601): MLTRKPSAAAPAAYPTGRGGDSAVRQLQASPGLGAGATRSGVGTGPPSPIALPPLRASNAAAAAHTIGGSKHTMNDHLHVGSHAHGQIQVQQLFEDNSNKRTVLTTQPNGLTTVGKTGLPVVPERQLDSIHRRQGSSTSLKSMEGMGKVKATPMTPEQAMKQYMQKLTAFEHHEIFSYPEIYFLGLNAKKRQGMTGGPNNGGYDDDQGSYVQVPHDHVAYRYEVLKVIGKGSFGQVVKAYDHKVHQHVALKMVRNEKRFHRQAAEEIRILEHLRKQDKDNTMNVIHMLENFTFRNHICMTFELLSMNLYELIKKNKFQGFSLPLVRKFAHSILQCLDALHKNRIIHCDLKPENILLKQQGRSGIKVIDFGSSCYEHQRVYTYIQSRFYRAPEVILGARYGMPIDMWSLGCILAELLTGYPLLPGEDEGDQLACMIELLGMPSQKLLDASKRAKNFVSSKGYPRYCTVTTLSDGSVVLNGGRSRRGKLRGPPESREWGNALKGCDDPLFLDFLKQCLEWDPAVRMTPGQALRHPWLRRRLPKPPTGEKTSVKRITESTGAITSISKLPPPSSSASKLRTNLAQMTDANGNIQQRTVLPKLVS

[9] = kinase HIPK4, 1 µmol/L single concentration
[10] = kinase PLK3, 1 µmol/L single concentration
[11] = AurC kinase assay, 1 µmol/L single concentration
[12] = kinase EEF2K, 1 µmol/L single concentration
[13] = kinase IRR, 1 µmol/L single concentration
[14] = kinase CK2α1/β, 1 µmol/L single concentration
[15] = kinase PLK2, 1 µmol/L single concentration
[16] = kinase DYRK2, 1 µmol/L single concentration

Structure (SMILES)	inhibition at 1 µM [1, 9] [%]	inhibition at 1 µM [2, 10] [%]	inhibition at 1 µM [3, 11] [%]	inhibition at 1 µM [4, 12] [%]	inhibition at 1 µM [5, 13] [%]	inhibition at 1 µM [6, 14] [%]	inhibition at 1 µM [7, 15] [%]	inhibition at 1 µM [8, 16] [%]	inhibition at 1 µM [1] [%]	inhibition at 1 µM [2] [%]	inhibition at 1 µM [3] [%]	inhibition at 1 µM [4] [%]	inhibition at 1 µM [5] [%]	inhibition at 1 µM [6] [%]	inhibition at 1 µM [7] [%]	inhibition at 1 µM [8] [%]
Cc1nc(NC(=O)N2CCC[C@H]2C(N)=O)sc1-c1ccnc(C(C)(C)C(F)(F)F)c1 [alpelisib]	64	1.89	4.51	2	7	-1.52	10	7								
Cn1cc(-c2cc3c(N4CCN(c5ncc([C@@](C)(N)c6ccc(F)cc6)cn5)CC4)ncnn3c2)cn1 [avapritinib]	46	5.69	14	-1.21	2.37	-3.77	7	56								
Cn1cnc2c(F)c(Nc3ccc(Br)cc3F)c(C(=O)NOCCO)cc21 [binimetinib]	-3.77	-0.0416	-6.37	-6	-5.48	-4.22	-5	6.52								
CNC(=O)c1ccc(-c2cnc3ncc(Cc4ccc5ncccc5c4)n3n2)cc1F [capmatinib]									3.67	0.709	-4.72	-0.629	4	-3.18	7	8
COc1cc2ncnc(Nc3ccc(F)c(Cl)c3)c2cc1NC(=O)/C=C/CN1CCCCC1 [dacomitinib]	85	3.6	0.922	0	6	-4	5	38								
C[C@H](Nc1ncnc2nc[nH]c12)c1cc2cccc(Cl)c2c(=O)n1-c1ccccc1 [duvelisib]	5	4.56	10	0.762	7	-2.47	13	8								
COC(=O)N[C@@H](C)CNc1nccc(-c2cn(C(C)C)nc2-c2cc(Cl)cc(NS(C)(=O)=O)c2F)n1 [encorafenib]	59	0.929	-10	1	-3.65	-1	-2.68	11								
CN1CCN(c2ccc(C(=O)Nc3n[nH]c4ccc(Cc5cc(F)cc(F)c5)cc34)c(NC3CCOCC3)c2)CC1 [entrectinib]	14	4.71	67	3.25	100	1.84	14	11								
CCc1nc(C(N)=O)c(Nc2ccc(N3CCC(N4CCN(C)CC4)CC3)c(OC)c2)nc1NC1CCOCC1 [gilteritinib]	99	2.59	41	-2.72	100	15	4.71	39								
CCN1CCN(c2ccc(Nc3cc(N(C)C(=O)Nc4c(Cl)c(OC)cc(OC)c4Cl)ncn3)cc2)CC1 [infigratinib]	6	-0.24	-7.58	2.54	34	-4	3.65	-3.43								
O=C(Nc1cnn2ccc(N3CCC[C@@H]3c3cc(F)ccc3F)nc12)N1CC[C@H](O)C1 [larotrectinib]	6	-0.714	-0.0475	-2	1.69	-2.37	2.14	6								
C[C@H]1Oc2cc(cnc2N)-c2c(nn(C)c2C#N)CN(C)C(=O)c2ccc(F)cc21 [lorlatinib]	2.62	2.15	19	-1.73	78	-2	10	4.35								
CCN1C(=O)N(c2c(F)c(OC)cc(OC)c2F)Cc2cnc3[nH]c(CN4CCOCC4)cc3c21 [pemigatinib]	28	-1.19	5	-3.26	8	-2.8	0.757	12								
FC(F)(F)c1ccc(CNc2ccc(Cc3c[nH]c4ncc(Cl)cc34)cn2)cn1 [pexidartinib]	52	12	68	-2.25	14	0.256	7	24								
CO[C@]1(C(=O)N[C@@H](C)c2ccc(-n3cc(F)cn3)nc2)CC[C@H](c2nc(C)cc(Nc3cc(C)[nH]n3)n2)CC1 [pralsetinib]	44	-0.12	36	1.23	10	-2.52	6.54	-0.768								
